# Data taken from patent US20110105554A1, “MEANS FOR TREATING MYOSIN-RELATED DISEASES” (KINARIS BIOMEDICALS GMBH, priority 2007, published 2011).
# Entries after “also recorded” stand apart in the source; their conditions may differ.
# Columns and labels:
# [1] = tested on: Plasmodium merozoites; test: In vitro growth assay, blood stages of malaria; type: cell-based; settings: 25 μM
# [2] = tested on: Plasmodium sporozoites; test: Plasmodium sporozoite motility (in vitro imaging); type: cell-based
# Excerpt: FIG. 20: (a) Plasmodium sporozoites adopt motility states, shown in the photos from the left to the right, attached, waving, clockwise (CW), and counterclockwise (CCW). In the absence of inhibitors sporozoites preferably move CW and CCW at 0.97 μm/s and 1.13 μm/s.
# Plasmodium sporozoites are moving at very low speed in the salivary glands of infected mosquitoes but are moving at high speed (2 μm/s) upon transmission into the vertebrate host. […] We followed single parasites using in vitro imaging approaches in combination with our bioactive compounds and discovered some intriguing features of sporozoite motility. Under normal conditions sporozoites move in circles, either counterclockwise or clockwise. Two other states of attachment and waving are less populated.
# [3] = in vitro; settings: human
# Description: (§1) Cytotoxicity may be assayed by determining the cellular uptake of neutral red. Only living cells are capable of neutral red uptake via an active transport mechanism. For an exemplary workflow of a cytotoxicity assay, see FIG. 16.
# (§2) FIG. 16: Cytotoxicity assay.
# (§3) FIG. 22: Cytotoxic testing of KIN-compounds by neutral red uptake assays. (a) human hepatocyte carcinoma cells (Hep G2) were exposed to KIN-43 for 4 h in the in presence of 1% FBS.
# (§4) We are using a library of common organic molecules and functional groups and are applying an empirical force field description of the nonbonding interactions between a ligand and the binding site in order to build up de novo compounds with spatial and electrostatic properties complementary to the allosteric binding site.
# [4] = tested on: human hepatocyte carcinoma cells (Hep G2); test: in vitro
# Description: as §1, §2, §3, §4
# [5] = Development toxicity testing on medaka embryos; settings: medaka, in vivo
# Description: (§5) (a) KIN-43 in concentrations between 0.5 μM and 100 μM were incubated for 48 h with 20 medaka embryos per concentration. […] (b) Light microscopy image of embryo after 48 h in the absence of KIN-43.
# as §4
# [6] = tested on: medaka embryos; test: Development toxicity testing on medaka embryos
# Description: as §5, §4
# [7] = molecular target: T1, Dictyostelium myosin-2 (Dictyostelium discoideum, UniProt P08799, C312Y/S249N); test: Basal ATPase activity, Dictyostelium myosin-2; type: biochemical
# T1 construct: comprising amino acids 1-698, 1-765, and 1-839 respectively; made in house
# T1 sequence (P08799 1-765 S249N/C312Y): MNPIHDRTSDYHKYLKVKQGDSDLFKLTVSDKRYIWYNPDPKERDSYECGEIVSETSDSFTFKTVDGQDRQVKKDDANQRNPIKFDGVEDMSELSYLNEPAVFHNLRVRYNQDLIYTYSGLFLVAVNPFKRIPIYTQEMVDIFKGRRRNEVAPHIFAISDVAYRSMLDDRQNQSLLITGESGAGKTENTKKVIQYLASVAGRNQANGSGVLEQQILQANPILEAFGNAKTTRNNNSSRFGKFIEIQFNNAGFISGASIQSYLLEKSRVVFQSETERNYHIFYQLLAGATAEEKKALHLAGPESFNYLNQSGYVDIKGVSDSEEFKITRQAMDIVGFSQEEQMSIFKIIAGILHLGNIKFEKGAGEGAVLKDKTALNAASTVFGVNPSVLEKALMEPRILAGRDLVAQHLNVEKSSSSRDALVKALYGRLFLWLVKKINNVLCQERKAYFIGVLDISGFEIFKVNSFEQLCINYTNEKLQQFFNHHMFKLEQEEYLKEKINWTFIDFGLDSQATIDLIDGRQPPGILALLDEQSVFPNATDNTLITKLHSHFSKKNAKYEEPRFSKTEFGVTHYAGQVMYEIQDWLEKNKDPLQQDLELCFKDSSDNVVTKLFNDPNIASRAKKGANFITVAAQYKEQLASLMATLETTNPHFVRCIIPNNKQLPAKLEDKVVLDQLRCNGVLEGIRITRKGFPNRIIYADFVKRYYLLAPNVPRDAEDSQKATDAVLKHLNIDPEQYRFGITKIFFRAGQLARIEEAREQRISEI
# Description: (a) Concentrations of […] in the range from 1 to 50 μM activate the basal ATPase activity of Dictyostelium myosin-2 with an apparent half maximum activation constant AC50 of 18 μM. At concentrations of KIN-74>50 μM the basal ATPase activity of Dictyostelium myosin-2 is inhibited with IC50=90 μM.
# Compounds KIN-74, KIN-77 are activators of myosin-2 function. KIN-74 activates the ATPase activity of Dictyostelium myosin-2 in the absence of actin. ATPase activity is uncoupled from motor activity in this situation. The apparent half-maximum activation constant AC50 corresponds to 18 μM. Uncouplers have potential applications in inhibiting the overcontraction and overextension of cardiac muscles without being accompanied with a cardioinhibitory action. Therefore, compounds derived from KIN-74 have potential applications in the treatment of acute myocardial infarction helping to prevent the necrosis of cardiac muscles.
# [8] = molecular target: T2, Dictyostelium myosin-2 (Dictyostelium discoideum, UniProt P08799, C312Y/S249N); test: Actin-activated ATPase activity (NADH-coupled assay), Dictyostelium myosin-2; type: biochemical; settings: 30 μM actin; read-out: IC50, ATPase activity in the presence of actin
# T2 construct: comprising amino acids 1-698, 1-765, and 1-839 respectively; made in house
# Description: Based on the structure of the myosin-2 motor domain with bound PBP, we performed molecular modeling studies to elucidate the specificity of PBP-binding to myosins from different classes. […] To test the predictions from the modeling studies, we determined actin-activated ATPase activities in the presence of 0 to 150 μM PBP with rabbit skeletal myosin-2 heavy meromyosin (HMM), myosin-5a isolated from chicken brain, and recombinant Dictyostelium myosin class-1, 2 and 5 motor-domain constructs (FIG. 9a). […] The concentrations of PBP required for half-maximal inhibition of the different myosin motors was calculated from fitting the data to hyperbolae. […] To determine the extend to which PBP impairs the coupling between the actin- and nucleotide-binding sites of myosin, we measured the ATP turn-over rates of Dictyostelium myosin-2 and myosin-5b motor domain constructs over the range from 0 to 50 μM F-actin in the absence and presence of 25 μM PBP.
# Values for the rate of maximum ATP turnover (kcat), the concentration of F-actin at which half-maximal activation is achieved (Kapp), and the apparent second order rate constant for actin binding (kcat/Kapp) were estimated from a fit of the data to a hyperbolic function. kcat/Kapp is a direct measure of the coupling efficiency between actin and nucleotide binding and can be determined from the initial slope at F-actin concentrations much smaller than Kapp. […] ATP turn-over rates of Dictyostelium myosin-2 (◯) and Dictyostelium myosin-5b (▪) at increasing F-actin concentrations in the absence (filled symbols) and presence (open symbols) of 25 μM pentabromopseudilin (FIG. 9b):
# Protein preparation. Rabbit fast skeletal muscle heavy meromyosin (HMM) was prepared as described by Kron and Spudich^9. Motor domain constructs of myosin-1E, myosin-2, and myosin-5b from Dictyostelium discoideum comprising amino acids 1-698, 1-765, and 1-839 respectively, were prepared as described previouslyl^10-12. Myosin-5a heavy meromyosin from chicken brain was provided by Dr. T. Scholz (Hannover Medical School, Germany) and F-actin was prepared as described by Lehrer and Kerwar^13.
# Steady-state kinetics. Basal and actin-activated Mg^2+-ATPase activities were measured with the NADH-coupled assay^19 in a buffer containing 25 mM HEPES, 25 mM KCl, and 4 mM MgCl2, 0.5 mM DTT at pH 7.0 in the presence of 1 mM ATP at 25° C. PBP was added to the reaction mixture in the absence of nucleotide and incubated for 20 minutes before the reaction was started by the addition of ATP. NADH oxidation was followed using the change in absorption at 340 nm in a Beckman DU-800 spectrophotometer.
# [9] = molecular target: T3, Dictyostelium myosin-1E (Dictyostelium discoideum, UniProt Q03479); test: Basal ATPase activity, Dictyostelium myosin-1E; type: biochemical; settings: read-out: concentration required for half-maximal inhibition of basal ATPase activity
# T3 construct: comprising amino acids 1-698, 1-765, and 1-839 respectively; made in house
# Excerpt: (§6) FIG. 18: KIN-68-inhibition of the basal ATPase activity of Dictyostelium myosin-1E and myosin-5b.
# [10] = molecular target: T4, Dictyostelium myosin-5b (Dictyostelium discoideum, UniProt P54697); test: Basal ATPase activity, Dictyostelium myosin-5b; type: biochemical; settings: read-out: concentration required for half-maximal inhibition of basal ATPase activity
# T4 construct: comprising amino acids 1-698, 1-765, and 1-839 respectively; made in house
# Excerpt: as §6
# [11] = tested on: myosin-1 isoforms; test: Selectivity for myosin isoforms (Example 3), myosin-1; type: biochemical
# Description: In this context, preferred selectivity means a more than 20-fold smaller IC50 value compared to fast skeletal muscle myosin-2 and other references myosins.
# T3 sequence (Q03479 1-698): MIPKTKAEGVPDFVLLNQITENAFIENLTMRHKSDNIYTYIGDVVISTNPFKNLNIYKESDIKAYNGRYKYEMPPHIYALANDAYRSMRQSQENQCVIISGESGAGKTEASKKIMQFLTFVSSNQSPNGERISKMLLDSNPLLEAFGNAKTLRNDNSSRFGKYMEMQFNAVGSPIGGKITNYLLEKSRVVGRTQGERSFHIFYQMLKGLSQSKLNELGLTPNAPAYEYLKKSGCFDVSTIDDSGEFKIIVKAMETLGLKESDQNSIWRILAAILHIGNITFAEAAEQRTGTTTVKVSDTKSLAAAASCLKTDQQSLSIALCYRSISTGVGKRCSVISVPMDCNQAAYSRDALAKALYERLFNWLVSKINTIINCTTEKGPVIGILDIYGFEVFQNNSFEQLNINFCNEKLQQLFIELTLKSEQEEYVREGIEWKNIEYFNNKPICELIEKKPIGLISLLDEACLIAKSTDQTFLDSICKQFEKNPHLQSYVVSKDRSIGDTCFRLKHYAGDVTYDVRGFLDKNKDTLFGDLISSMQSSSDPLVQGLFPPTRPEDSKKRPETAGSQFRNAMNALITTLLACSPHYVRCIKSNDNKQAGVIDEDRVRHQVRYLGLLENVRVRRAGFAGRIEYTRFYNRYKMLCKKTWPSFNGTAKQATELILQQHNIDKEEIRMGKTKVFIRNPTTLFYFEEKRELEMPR
# T4 sequence (P54697 1-839): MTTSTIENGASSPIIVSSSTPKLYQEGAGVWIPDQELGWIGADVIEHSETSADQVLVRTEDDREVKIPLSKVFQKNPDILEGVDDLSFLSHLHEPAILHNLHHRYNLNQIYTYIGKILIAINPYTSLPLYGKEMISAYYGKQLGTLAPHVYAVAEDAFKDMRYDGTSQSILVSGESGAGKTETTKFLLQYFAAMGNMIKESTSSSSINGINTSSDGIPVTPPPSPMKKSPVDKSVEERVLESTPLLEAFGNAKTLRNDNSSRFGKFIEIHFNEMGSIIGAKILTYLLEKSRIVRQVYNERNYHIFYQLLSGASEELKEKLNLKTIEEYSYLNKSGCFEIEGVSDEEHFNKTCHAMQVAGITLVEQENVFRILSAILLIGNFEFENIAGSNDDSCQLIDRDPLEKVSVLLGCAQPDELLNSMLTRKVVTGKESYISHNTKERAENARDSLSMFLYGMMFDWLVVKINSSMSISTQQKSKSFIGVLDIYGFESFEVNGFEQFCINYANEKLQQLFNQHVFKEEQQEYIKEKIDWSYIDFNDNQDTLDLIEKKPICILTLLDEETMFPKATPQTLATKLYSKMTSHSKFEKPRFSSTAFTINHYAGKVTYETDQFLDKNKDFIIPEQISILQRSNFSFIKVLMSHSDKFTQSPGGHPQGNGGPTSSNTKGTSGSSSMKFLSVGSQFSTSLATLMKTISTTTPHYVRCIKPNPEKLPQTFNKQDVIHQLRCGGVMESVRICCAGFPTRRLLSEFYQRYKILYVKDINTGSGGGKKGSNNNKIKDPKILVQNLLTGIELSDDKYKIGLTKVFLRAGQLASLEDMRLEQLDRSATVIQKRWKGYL
smiles,measurement,setting,value
Oc1cc(F)c(F)c2c1[nH]c1ccc(F)cc12 [KIN-93],effect on the blood stages of malaria,[1],reducing the number of Plasmodium merozoites
same,general cytotoxicity for erythrocytes or for Plasmodium sporozoites,[2],No general cytotoxicity
same,gliding velocity compared with control parasites,[2]; 10 μM,only half as fast
same,motility states of the sporozoite population,[2]; 10 μM,switched the population to attached and waving states; also recorded: strongly reduced
same,velocity of clockwise (CW) motility,[2]; 0.97 μm/s without inhibitor,0.58 μm/s
same,velocity of counterclockwise (CCW) motility,[2]; 1.13 μm/s without inhibitor,0.59 μm/s
same,CC50 at 4 h,[3],> 50 µM
same,"neutral red uptake experiments, defects",[4],do not reveal any defects
same,LC50 at 48 h,[5],> 50 µM
same,lethal effect on medaka embryos,[6]; below 50.0 μM,no lethal effect
same,embryonic development,[6]; in vivo,not impaired
"Oc1c(F)cc(F)cc1-c1[nH]c(Br)c(Br)c1Br [KIN-74, 2,3,4-tribromo-5 (1′ hydroxy, 2′,4′-difluorophenyl)pyrrole]",AC50,"[7]; absence of actin, 1 to 50 μM, read-out: apparent half maximum activation constant AC50, basal ATPase activity",18 µM
same,IC50,[7]; at concentrations >50 μM,90 µM
same,IC50,[8],88.8 µM
"Oc1c(Cl)cc(Cl)cc1-c1[nH]c(Cl)c(Cl)c1Cl [KIN-68, pentachloropseudilin]",IC50,[9],55.8 µM
same,IC50,[10],105 µM
same,preferred selectivity: fold smaller IC50 compared to fast skeletal muscle myosin-2 and other reference myosins,[11],more than 20 fold
